# Assay results as given in patent US20030199671A1, “Binding molecules for Fc-region polypeptides” (priority 2001, published 2003).
# Positions of bridges follow the written chain, without caps; N, C: chain ends. Residues, ends and D or L forms follow the SMILES beside them.
# Experiments:
# IgG4 [1] = biological target: T1, IgG4 (Homo sapiens, UniProt P01861); assay: Column capture of human IgG4 from goat IgG in buffer; type: binding; parameters: all human subtypes derived from myeloma patients; purchased Calbiochem 400126; host or cells: myeloma patients; conditions: SEC-HPLC; load 99.5% monomer
# Protocol: 0.250 mg of hIgG4 (99.5% monomer) was added to 1.0 mg of goat IgG in a total volume of 1.0 ml of PBST, pH 7.2. Thus, 1.0 ml was loaded onto a 350 ul mini-column as described above. The column was washed to baseline with PBST, pH 7.2 and the flowthrough fraction collected. Bound IgG was eluted with 0.1M sodium bicarbonate buffer, pH 9.0 and the column cleaned with 0.1M CAPS, pH 11.5. The eluted and clean fractions were quickly neutralized to pH˜7.2 and assayed for mass recovery by SEC-HPLC. […] The column load, flowthrough, elution and cleaning fractions were further analyzed by electrophoresis (SDS-PAGE), Coomassie stain.
# human plasma IgG1 = biological target: T2, human plasma IgG1 (Homo sapiens, UniProt P01857); assay: Fluorescence anisotropy binding, fluorescein-labeled peptide
# T2 construct: the individual human plasma IgG isoforms: IgG1, IgG2, IgG3, or IgG4; purchased Calbiochem; host or cells: human plasma
# Protocol: (§1) All measurements were performed in 384 well microplates with 20 nM fluorescein-labeled peptide and various concentrations of the IgG isoform in a volume of between 10 and 20 μl using a Tecan Polarion fluorescence polarization plate reader. All binding buffers included 0.01% (v/v) Tween 20 to prevent peptide adsorption to the microplate. The binding mixture was equilibrated for 10 minutes in the microplate at 30° C. prior to performing the measurement.
# (§2) Peptides were synthesized, fluorescein-labeled and HPLC purified as described above. Binding studies were performed using either a mixture of human plasma IgG isoforms (the Fc protein) or the individual human plasma IgG isoforms: IgG1, IgG2, IgG3, or IgG4.
# (§3) Measurements were performed in 384-well microplates with 2 nM fluorescein-labeled peptide and a varied concentration of the IgG isoform target in a volume of 10 μl using a Tecan Polarion fluorescence polarization plate reader. The Fc binding buffer was 50 mM Tris-HCl, 200 mM NaCl, pH 8.0, 0.01% Tween 20. The IgG binding buffer was PBS with 0.01% Tween 20. The binding mixtures were equilibrated for 10 minutes in the microplate at 30° C. prior to performing the measurements.
# human plasma IgG2 = biological target: T3, human plasma IgG2 (Homo sapiens, UniProt P01859); assay: as above
# T3 construct: the individual human plasma IgG isoforms: IgG1, IgG2, IgG3, or IgG4; purchased Calbiochem; host or cells: human plasma
# Protocol: as §1, §2, §3
# human IgG1 = biological target: T4, human IgG1 (Homo sapiens, UniProt P01857); assay: Column capture from conditioned CHO cell culture supernatant containing 5% fetal bovine serum; type: binding; conditions: SEC-HPLC; load 93% monomer
# T4 construct: all human subtypes derived from myeloma patients; purchased Calbiochem 400120; host or cells: myeloma patients
# Protocol: Human IgG1 (93% monomer) was spiked into conditioned CHO media to 50 μg/ml and 5 ml (250 μg total) was loaded onto a 350 μl mini-column as described above. The column was washed to baseline with PBST, pH 7.2 and the flowthrough fraction collected. Bound IgG was eluted with 0.1M sodium bicarbonate buffer, pH 9.0, and the column cleaned with 0.1M CAPS, pH 11.5. The eluted and clean fractions were quickly neutralized to ˜pH 7.2 and assayed for mass recovery by SEC-HPLC. Thus, an 80% recovery (98% monomer) was obtained in the eluted fraction. The column load, flowtbrough, elution and cleaning fractions were further analyzed by electrophoresis (SDS-PAGE), Coomassie stain and Western analysis for the presence of human and bovine IgG.
# IgG4 [2] = biological target: T1, IgG4; assay: Competition between synthetic peptides and Protein A for Fc binding; parameters: the individual human plasma IgG isoforms: IgG1, IgG2, IgG3, or IgG4; purchased Calbiochem; host or cells: human plasma; key: NB: no detected binding.; ?: partial decrease in anisotropy with added competitor; conditions: 5 mg/ml protein A
# Protocol: Cross-competition studies between peptides were performed using 20 nM fluorescein-labeled peptide and 1-2 μM IgG1, IgG2, IgG3, or IgG4 in the presence and absence of a maximum of 100 μM unlabeled peptide or 5 mg/ml protein A.
# This is consistent with the fact that Protein A is known not to bind human IgG3.
# human IgG = assay: DX253 column cycling with IgG spiked cell culture media
# Protocol: DX253 peptide was immobilized onto NHS-activated 4 Fast Flow to a ligand density of 2.9 μmole/ml as determined by quantitative amino acid analysis. This affinity resin was packed into a 4.6 mm×6 cm (internal diam.×length, 1.0 ml bed volume) PEEK column (Isolation Technologies, Inc., 5050IP-08046-006-20).
# Human IgG was spiked into fresh cell culture media (DMEM) containing 10% fetal bovine serum (ultra low) to 0.5 mg/ml. 2 ml (1.0 mg IgG) was loaded onto the column which was pre-equilibrated with PBS, pH 7.2. Loading was performed at 0.21 ml/minute (75 cm/hour) and all subsequent steps (wash, elution and cleaning) were performed at 0.42 ml/minute (150 cm/hour). Unbound sample was washed to baseline with PBS, pH 7.2, followed by elution with 0.1M citrate, pH 3.0, wash with PBS, pH 7.2, cleaning with 3M guanidine-HCl, 20 mM phosphate, pH 7.2 and re-equilibration back into PBS, pH 7.2. A total of 19 series of 5 cycles each (95 cycles total) were run. […] This procedure was used for cycles 1-25, 27-65, 67-85, and 87-95.
# [3] = pH 9.3, 0.01 M sodium bicarbonate
# [4] = pH 9.3, .01 M sodium bicarbonate, 0.2 M NaCl
compound,measurement,setting,value
CC[C@H](C)[C@@H]1NC(=O)[C@H](CC(C)C)NC(=O)[C@H](CCC(=O)O)NC(=O)CNC(=O)[C@H](Cc2c[nH]c3ccccc23)NC(=O)[C@H]([C@@H](C)O)NC(=O)[C@H]([C@@H](C)O)NC(=O)[C@H](Cc2ccc(O)cc2)NC(=O)[C@H](C(C)C)NC(=O)[C@@H](NC(=O)[C@H](CCSC)NC(=O)[C@H](Cc2c[nH]cn2)NC(=O)[C@H](CC(=O)O)NC(=O)[C@H](CC(=O)O)NC(=O)CNC(C)=O)CSSC[C@@H](C(=O)N[C@@H](CC(=O)O)C(=O)N[C@@H](CC(N)=O)C(=O)N[C@@H](Cc2c[nH]cn2)C(=O)N[C@@H](CCC(=O)O)C(=O)N2CCC[C@H]2C(=O)NCC(=O)N2CCC[C@H]2C(=O)N[C@@H](CCC(=O)O)C(=O)NCC(=O)NCC(=O)NCC(=O)N[C@@H](CCCCN)C(N)=O)NC(=O)[C@H](Cc2c[nH]c3ccccc23)NC1=O [DX249] (Ac-GDDHMCVYTTWGELIWCDNHEPGPEGGGK-NH2; disulfide 6-17),Monomer in the eluted fraction,IgG4 [1],99.5%
same,Effect of including 15% ethylene glycol on binding to IgG1,human plasma IgG1; 15% ethylene glycol,no observed effect
same,Kd,"human plasma IgG1; pH 5.7, 0.01 M Tris-acetate, 0 M NaCl",0.074 ± 0.053 µM
same,Kd,"human plasma IgG1; pH 5.7, 0.01 M Tris-acetate, […] NaCl",0.84 ± 0.7 µM
same,Kd,"human plasma IgG1; pH 7.4, 0.01 M Tris-HCl",0.4 ± 0.06 µM
same,Kd,"human plasma IgG1; pH 7.4, PBS, […] NaCl",2.9 ± 0.9 µM
same,Kd,"human plasma IgG1; pH 7.4 PBS, […] NaCl, 15% EG",3.6 ± 2.5 µM
same,Kd,human plasma IgG1; [3],> 10 µM
same,Kd,human plasma IgG1; [4],> 10 µM
same,Kd,"human plasma IgG2; pH 7.4, PBS, […] NaCl",1.1 ± 0.3 µM
same,Kd,human plasma IgG2; [3],> 10 µM
same,Monomer in the eluted fraction,human IgG1,98%
CC(=O)NCC(=O)N[C@@H](CC(=O)O)C(=O)N[C@@H](CC(=O)O)C(=O)N[C@@H](CC(=O)O)C(=O)N[C@@H](Cc1c[nH]cn1)C(=O)N[C@H]1CSSC[C@@H](C(=O)N2CCC[C@H]2C(=O)N[C@@H](Cc2c[nH]cn2)C(=O)NCC(=O)N[C@@H](CCC(=O)O)C(=O)N2CCC[C@H]2C(=O)NCC(=O)N2CCC[C@H]2C(=O)N[C@@H](CCC(=O)O)C(=O)NCC(=O)NCC(=O)NCC(=O)N[C@@H](CCCCN)C(N)=O)NC(=O)[C@H](CCC(=O)O)NC(=O)[C@H](CO)NC(=O)[C@H](CC(N)=O)NC(=O)[C@H](Cc2ccccc2)NC(=O)[C@H](Cc2c[nH]c3ccccc23)NC(=O)[C@H](CCC(=O)O)NC(=O)[C@H](CCCNC(=N)N)NC(=O)[C@H](Cc2ccccc2)NC(=O)[C@H](Cc2c[nH]c3ccccc23)NC(=O)[C@H](Cc2ccc(O)cc2)NC1=O [DX252] (Ac-GDDDHCYWFREWFNSECPHGEPGPEGGGK-NH2; disulfide 6-17 (inferred)),Kd,"human plasma IgG1; pH 7.4, 0.01 M Tris-HCl",2.1 to 3.4 µM
same,Kd,"human plasma IgG1; pH 7.4, PBS, […] NaCl",2.9 ± 1.6 µM
same,Kd,human plasma IgG1; [3],> 10 µM
same,Kd,human plasma IgG1; [4],> 10 µM
same,Kd,"human plasma IgG2; pH 5.7, 0.01 M Tris-acetate",> 1 µM
same,Kd,"human plasma IgG2; pH 7.4, 0.01 M Tris-HCl",2.1 to 3.4 µM
same,Kd,human plasma IgG2; [3],> 10 µM
same,"Competition between labeled peptide and Protein A, IgG4",IgG4 [2],NB
Ac-GDRRACSRDWSGALVWCAGHEPGPEGGGK-NH2 (not fully specified (bridges); printed as Ac-GDRRACSRDWSGALVWCAGHEPGPEGGGK-NH2; cysteine pairing not given here) [DX253],% Relative Performance (elution peak area vs cycle 1),"human IgG; Cycling Run No. 1, cycling run 1",100%
same,% Relative Performance (elution peak area vs cycle 1),"human IgG; Cycling Run No. 10, cycling run 10",97.6%
same,% Relative Performance (elution peak area vs cycle 1),"human IgG; Cycling Run No. 20, cycling run 20",97.9%
same,% Relative Performance (elution peak area vs cycle 1),"human IgG; Cycling Run No. 30, cycling run 30",102.3%
same,% Relative Performance (elution peak area vs cycle 1),"human IgG; Cycling Run No. 40, cycling run 40",103.1%
same,% Relative Performance (elution peak area vs cycle 1),"human IgG; Cycling Run No. 51, cycling run 51",102.0%
same,% Relative Performance (elution peak area vs cycle 1),"human IgG; Cycling Run No. 60, cycling run 60",103.1%
same,% Relative Performance (elution peak area vs cycle 1),"human IgG; Cycling Run No. 70, cycling run 70",102.6%
same,% Relative Performance (elution peak area vs cycle 1),"human IgG; Cycling Run No. 81, cycling run 81",102.1%
same,% Relative Performance (elution peak area vs cycle 1),"human IgG; Cycling Run No. 90, cycling run 90",101.8%
